Laboratory results as given in US5847092A (Zambon Group S.p.A., priority 1994, dated 1998).
In brackets after ≈: the same amount, converted by molar mass.

Experiments:
Assay in all cases: In vitro antibacterial activity, MIC, broth microdilution
Format in all cases: cell-based
[1] = tested on: Klebsiella pneumoniae ZC 2; conditions: K. pneumoniae ZC 2, MHB, 37° C., 18 hours; for MIC: Klebsiella pneumoniae, ZC2, read-out: minimum inhibiting concentration MIC
Experimental: (§1) a) In vitro antibacterial activity The determination of the minimum inhibiting concentrations (MIC), with respect to Gram-positive and Gram-negative bacteria was carried out through the micromethod of gradual broth dilution in double series [National Committee for Clinical Laboratory Standards, 1990; Methods for dilution antimicrobial susceptibility tests for bacteria that grow aerobically; Approved standards […], Villanova, Pa.], by using Mueller Hinton Broth (MHB) as a culture medium. In the case of […] bacteria, horse serum at 5% (Streptococcus pneumoniae and Streptococcus pyogenes) was added to the medium. Roxithromycin and Clarithromycin [The Merck Index, XI Ed., No. 8253 and 2340, respectively] were used as reference macrolides. MIC, expressed as (μg/ml), were determined after incubation of the microplates at 37° C. for 18 hours, evaluating the lowest antibiotic concentration enabling the inhibition of bacterial development.

[2] = tested on: Streptococcus pneumoniae BS 3; conditions: S. pneumoniae BS 3, MHB + 5% horse serum, 37° C., 18 hours; for MIC: Streptococcus pneumoniae, BS3, read-out: minimum inhibiting concentration MIC
Experimental: as §1

[3] = tested on: Staphylococcus aureus PV 14; conditions: S. aureus PV 14, MHB, 37° C., 18 hours; for MIC: Staphylococcus aureus, PV14, read-out: minimum inhibiting concentration MIC
Experimental: as §1

[4] = tested on: Enterococcus faecalis ATCC 29212; conditions: E. faecalis ATCC 29212, MHB, 37° C., 18 hours; for MIC: Enterococcus faecalis, ATCC29212, read-out: minimum inhibiting concentration MIC
Experimental: as §1

[5] = tested on: Streptococcus pneumoniae BS 4; conditions: S. pneumoniae BS 4, MHB + 5% horse serum, 37° C., 18 hours; for MIC: Streptococcus pneumoniae, BS4, read-out: minimum inhibiting concentration MIC
Experimental: as §1

[6] = tested on: Streptococcus pyogenes A 26; conditions: S. pyogenes A 26, MHB + 5% horse serum, 37° C., 18 hours; for MIC: Streptococcus pyogenes, A26, read-out: minimum inhibiting concentration MIC
Experimental: as §1

[7] = tested on: Escherichia coli ATCC 25922; conditions: E. coli ATCC 25922, MHB, 37° C., 18 hours; for MIC: Escherichia coli, ATCC25922, read-out: minimum inhibiting concentration MIC
Experimental: as §1

[8] = tested on: Streptococcus pyogenes C 203; conditions: S. pyogenes C 203, MHB + 5% horse serum, 37° C., 18 hours; for MIC: Streptococcus pyogenes, C203, read-out: minimum inhibiting concentration MIC
Experimental: as §1

Molecule: CC[C@H]1OC(=O)[C@H](C)[C@@H](O[C@H]2C[C@@](C)(OC)[C@@H](O)[C@H](C)O2)[C@H](C)[C@@H](O[C@@H]2O[C@H](C)C[C@H](N(C)C)[C@H]2O)[C@](C)(O)C[C@@H](C)/C(=N\OCCNCCCCCCCCNCc2ccccc2)[C@H](C)[C@@H](O)[C@]1(C)O [Compound 9, Erythromycin A (E)-9-[0-[2-[8-(phenylmethyiamino)octylamino]ethyl]oxime]]
- MIC [1]: 16 µg/mL (≈ 15.9 µM)
- MIC [2]: 0.0078 µg/mL
- MIC [3]: 0.25 µg/mL (≈ 0.248 µM)
- MIC [4]: 4 µg/mL (≈ 3.96 µM)
- MIC [5]: 0.0078 µg/mL
- MIC [6]: 0.0078 µg/mL
- MIC [7]: 4 µg/mL (≈ 3.96 µM)
- MIC [8]: 0.0039 µg/mL

Molecule: CC[C@H]1OC(=O)[C@H](C)[C@@H](O[C@H]2C[C@@](C)(OC)[C@@H](O)[C@H](C)O2)[C@H](C)[C@@H](O[C@@H]2O[C@H](C)C[C@H](N(C)C)[C@H]2O)[C@](C)(O)C[C@@H](C)/C(=N\OCCCCCCNCCCNCc2ccccc2)[C@H](C)[C@@H](O)[C@]1(C)O [Compound 7, Erythromycin A (E)-9-[0-[6-[3-(phenylmethylamino)propylamino]hexyl]oxime]]
- MIC [1]: 16 µg/mL (≈ 16.1 µM)
- MIC [2]: 0.0625 µg/mL
- MIC [3]: 0.5 µg/mL (≈ 0.502 µM)
- MIC [4]: 4 µg/mL (≈ 4.02 µM)
- MIC [5]: 0.0625 µg/mL
- MIC [6]: 0.0312 µg/mL
- MIC [7]: 4 µg/mL (≈ 4.02 µM)
- MIC [8]: 0.0156 µg/mL

Molecule: CC[C@H]1OC(=O)[C@H](C)[C@@H](O[C@H]2C[C@@](C)(OC)[C@@H](O)[C@H](C)O2)[C@H](C)[C@@H](O[C@@H]2O[C@H](C)C[C@H](N(C)C)[C@H]2O)[C@](C)(O)C[C@@H](C)/C(=N\OCCNCCCCCCNCc2ccccc2O)[C@H](C)[C@@H](O)[C@]1(C)O [Compound 24, Erythromycin A (E)-9-[0-[2-[6-[(2-hydroxyphenyl)methylamino]hexylamino]ethyl]oxime]]
- MIC [1]: 8 µg/mL (≈ 8.02 µM)
- MIC [2]: 0.0078 µg/mL
- MIC [3]: 0.25 µg/mL (≈ 0.251 µM)
- MIC [4]: 4 µg/mL (≈ 4.01 µM)
- MIC [5]: 0.0156 µg/mL
- MIC [6]: 0.0156 µg/mL
- MIC [7]: 4 µg/mL (≈ 4.01 µM)
- MIC [8]: 0.0039 µg/mL

Molecule: CC[C@H]1OC(=O)[C@H](C)[C@@H](O[C@H]2C[C@@](C)(OC)[C@@H](O)[C@H](C)O2)[C@H](C)[C@@H](O[C@@H]2O[C@H](C)C[C@H](N(C)C)[C@H]2O)[C@](C)(O)C[C@@H](C)/C(=N\OCCNCCNCc2ccccc2)[C@H](C)[C@@H](O)[C@]1(C)O [Compound 5, Erythromycin A (E)-9-[0-[2-[2-(phenylmethylamino)ethylamino]ethyl]oxime]]
- MIC [1]: 32 µg/mL (≈ 34.6 µM)
- MIC [2]: 0.0156 µg/mL
- MIC [3]: 1 µg/mL (≈ 1.08 µM)
- MIC [4]: 4 µg/mL (≈ 4.32 µM)
- MIC [5]: 0.0312 µg/mL
- MIC [6]: 0.0312 µg/mL
- MIC [7]: 8 µg/mL (≈ 8.65 µM)
- MIC [8]: 0.0156 µg/mL

Molecule: CC[C@H]1OC(=O)[C@H](C)[C@@H](O[C@H]2C[C@@](C)(OC)[C@@H](O)[C@H](C)O2)[C@H](C)[C@@H](O[C@@H]2O[C@H](C)C[C@H](N(C)C)[C@H]2O)[C@](C)(O)C[C@@H](C)/C(=N\OCCNCCCCCCNCc2cc(Cl)cc(Cl)c2O)[C@H](C)[C@@H](O)[C@]1(C)O [Compound 32, Erythromycin A (E)-9-[0-[2-[6-[(3,5-dichloro-2-hydroxyphenyl)methylamino]hexylamino]ethyl]oxime]]
- MIC [1]: 16 µg/mL (≈ 15 µM)
- MIC [2]: 0.0625 µg/mL
- MIC [3]: 0.5 µg/mL (≈ 0.469 µM)
- MIC [4]: 2 µg/mL (≈ 1.88 µM)
- MIC [5]: 0.0312 µg/mL
- MIC [6]: 0.0625 µg/mL
- MIC [7]: 4 µg/mL (≈ 3.75 µM)
- MIC [8]: 0.0156 µg/mL

Molecule: CC[C@H]1OC(=O)[C@H](C)[C@@H](O[C@H]2C[C@@](C)(OC)[C@@H](O)[C@H](C)O2)[C@H](C)[C@@H](O[C@@H]2O[C@H](C)C[C@H](N(C)C)[C@H]2O)[C@](C)(O)C[C@@H](C)/C(=N\OCCNCCCCCCNCc2ccc([N+](=O)[O-])c(O)c2)[C@H](C)[C@@H](O)[C@]1(C)O [Compound 37, Erythromycin A (E)-9-[0-[2-[6-[(3-hydroxy-4-nitrophenyl)methylamino]hexylamino]ethyl]oxime]]
- MIC [1]: 16 µg/mL (≈ 15.4 µM)
- MIC [2]: 0.0312 µg/mL
- MIC [3]: 0.5 µg/mL (≈ 0.48 µM)
- MIC [4]: 8 µg/mL (≈ 7.68 µM)
- MIC [5]: 0.0312 µg/mL
- MIC [6]: 0.0312 µg/mL
- MIC [7]: 4 µg/mL (≈ 3.84 µM)
- MIC [8]: 0.0039 µg/mL

Molecule: CC[C@H]1OC(=O)[C@H](C)[C@@H](O[C@H]2C[C@@](C)(OC)[C@@H](O)[C@H](C)O2)[C@H](C)[C@@H](O[C@@H]2O[C@H](C)C[C@H](N(C)C)[C@H]2O)[C@](C)(O)C[C@@H](C)/C(=N\OCCCCCNCCCCCCNCc2ccccc2)[C@H](C)[C@@H](O)[C@]1(C)O [Compound 11, Erythromycin A (E)-9-[0-[5-[6-(phenylmethylamino)hexylamino]pentyl]oxime]]
- MIC [1]: 16 µg/mL (≈ 15.6 µM)
- MIC [2]: 0.25 µg/mL
- MIC [3]: 0.5 µg/mL (≈ 0.489 µM)
- MIC [4]: 16 µg/mL (≈ 15.6 µM)
- MIC [5]: 0.5 µg/mL
- MIC [6]: 0.0625 µg/mL
- MIC [7]: 8 µg/mL (≈ 7.82 µM)
- MIC [8]: 0.0312 µg/mL

Molecule: CC[C@H]1OC(=O)[C@H](C)[C@@H](O[C@H]2C[C@@](C)(OC)[C@@H](O)[C@H](C)O2)[C@H](C)[C@@H](O[C@@H]2O[C@H](C)C[C@H](N(C)C)[C@H]2O)[C@](C)(O)C[C@@H](C)/C(=N\OCCCCCCNCCCCCCNCc2ccccc2)[C@H](C)[C@@H](O)[C@]1(C)O [Compound 6, Erythromycin A (E)-9-[0-[6-[6-(phenylmethylamino)hexylamino]hexyl]oxime]]
- MIC [1]: 16 µg/mL (≈ 15.4 µM)
- MIC [2]: 0.0156 µg/mL
- MIC [3]: 0.25 µg/mL (≈ 0.241 µM)
- MIC [4]: 8 µg/mL (≈ 7.71 µM)
- MIC [5]: 0.0312 µg/mL
- MIC [6]: 0.0312 µg/mL
- MIC [7]: 4 µg/mL (≈ 3.86 µM)
- MIC [8]: 0.0156 µg/mL

Molecule: Erythromycin A (E)-9-[0-[2-[N-ethyl-6-[N'-ethyl-N'-(2-phenylethyl)amino]hexylamino]hexyl])oxime] [Compound 2]
- minimum inhibiting concentration MIC [1]: 64 µg/mL
- minimum inhibiting concentration MIC [2]: 0.0156 µg/mL
- minimum inhibiting concentration MIC [3]: 1 µg/mL
- minimum inhibiting concentration MIC [4]: 8 µg/mL
- minimum inhibiting concentration MIC [5]: 0.0312 µg/mL
- minimum inhibiting concentration MIC [6]: 0.0156 µg/mL
- minimum inhibiting concentration MIC [7]: 16 µg/mL
- minimum inhibiting concentration MIC [8]: 0.0312 µg/mL

Molecule: CC[C@H]1OC(=O)[C@H](C)[C@@H](O[C@H]2C[C@@](C)(OC)[C@@H](O)[C@H](C)O2)[C@H](C)[C@@H](O[C@@H]2O[C@H](C)C[C@H](N(C)C)[C@H]2O)[C@](C)(O)C[C@@H](C)/C(=N\OCCNCCCCCCNCc2ccc(O)c([N+](=O)[O-])c2)[C@H](C)[C@@H](O)[C@]1(C)O [Compound 36, Erythromycin A (E)-9-[0-[2-[6-[(4-hydroxy-3-nitrophenyl)methylamino]hexylamino]ethyl]oxime]]
- MIC [1]: 32 µg/mL (≈ 30.7 µM)
- MIC [2]: 0.0625 µg/mL
- MIC [3]: 0.5 µg/mL (≈ 0.48 µM)
- MIC [4]: 16 µg/mL (≈ 15.4 µM)
- MIC [5]: 0.0625 µg/mL
- MIC [6]: 0.0625 µg/mL
- MIC [7]: 8 µg/mL (≈ 7.68 µM)
- MIC [8]: 0.0078 µg/mL

Molecule: CC[C@H]1OC(=O)[C@H](C)[C@@H](O[C@H]2C[C@@](C)(OC)[C@@H](O)[C@H](C)O2)[C@H](C)[C@@H](O[C@@H]2O[C@H](C)C[C@H](N(C)C)[C@H]2O)[C@](C)(O)C[C@@H](C)/C(=N\OCCCNCCCCCCNCc2ccccc2)[C@H](C)[C@@H](O)[C@]1(C)O [Compound 12, Erythromycin A (E)-9-[0-[3-[6-(phenylmethylamino)hexylamino]propyl]oxime]]
- MIC [1]: 32 µg/mL (≈ 32.1 µM)
- MIC [2]: 0.25 µg/mL
- MIC [3]: 0.25 µg/mL (≈ 0.251 µM)
- MIC [4]: 16 µg/mL (≈ 16.1 µM)
- MIC [5]: 0.5 µg/mL
- MIC [6]: 0.0625 µg/mL
- MIC [7]: 8 µg/mL (≈ 8.04 µM)
- MIC [8]: 0.0312 µg/mL

Molecule: CC[C@H]1OC(=O)[C@H](C)[C@@H](O[C@H]2C[C@@](C)(OC)[C@@H](O)[C@H](C)O2)[C@H](C)[C@@H](O[C@@H]2O[C@H](C)C[C@H](N(C)C)[C@H]2O)[C@](C)(O)C[C@@H](C)/C(=N\OCCNCCCCCCNCc2cccc(O)c2)[C@H](C)[C@@H](O)[C@]1(C)O [Compound 25, Erythromycin A (E)-9-[0-[2-[6-[(3-hydroxyphenyl)methylamino]hexylamino]ethyl]oxime]]
- MIC [1]: 16 µg/mL (≈ 16 µM)
- MIC [2]: 0.25 µg/mL
- MIC [3]: 0.125 µg/mL (≈ 0.125 µM)
- MIC [4]: 8 µg/mL (≈ 8.02 µM)
- MIC [5]: 0.25 µg/mL
- MIC [6]: 0.125 µg/mL
- MIC [7]: 8 µg/mL (≈ 8.02 µM)
- MIC [8]: 0.0312 µg/mL
